Assay results as given in US5942248A, “Pharmaceutical composition containing a low detergent effect bile salt and an active compound that undergoes biliary excretion and/or enterohepatic recycling” (priority 1992, dated 1999).
Read-outs that look alike come from different tables or passages of the source.

Assays:
[1] = cited from earlier work
[2] = tested on: gastrointestinal mucosa; settings: in vivo; cited from earlier work
[3] = tested on: isolated perfused rat liver; settings: cited from earlier work
[4] = Stability of indomethacin in stored plasma samples; assay type: physicochemical; settings: -20° C.
Protocol: The medication was taken with approx. 250 ml of boiled tap water. The zero time blood samples were taken within a 5 min period preceding the administration of the medication. Subsequent samples were taken at 0.5, 1.0, 1.5, 2.0, 2.5, 3.0, 4.0, 6.0, 8.0, 10.0 and 12.0 h. Blood samples were collected into lithium heparin tubes, gently mixed and centrifuged at 2.0×10^3 g.min within 15min of collection. Separated plasma was transferred into a clean tube and stored at -20° C. After a one week interval, the subjects received the alternative medication and the blood sampling protocol was repeated. Plasma samples were analysed by the HPLC method described by S. K. Cole et al (1992) Int. J. Pharm. 80, 63-73.

[5] = pH 7.3 buffer, 37° C.; cited from earlier work
[6] = cited from earlier work; remark: listed apart in the source
[7] = cited from earlier work; remark: listed apart in the source
[8] = aqueous solution; cited from earlier work
[9] = tested on: isolated perfused rat liver; settings: cited from earlier work; remark: listed apart in the source
[10] = tested on: isolated human hepatocytes; settings: cited from earlier work
[11] = tested on: subjects receiving gallstone dissolution therapy; settings: rather than chenodeoxycholate; cited from earlier work
[12] = tested on: rats; settings: induced by more detergent dihydroxy and trihydroxy bile acids; cited from earlier work
[13] = tested on: patients; settings: chronic active hepatitis, primary biliary cirrhosis, cystic fibrosis; cited from earlier work
[14] = tested on: heart transplant patients; settings: cyclosporine-induced cholestasis; cited from earlier work
[15] = tested on: human erythrocytes; settings: cited from earlier work
[16] = tested on: mono-layer cultures of isolated rat hepatocytes; settings: cited from earlier work

SMILES: CC1(C)S[C@@H]2[C@H](NC(=O)[C@H](N)c3ccccc3)C(=O)N2[C@H]1C(=O)O [ampicillin]
- biliary excretion with exogenously added bile acids ([1]; variety of animal species): increased the biliary excretion

SMILES: CC(=O)Oc1ccccc1C(=O)O [aspirin]
- gastrointestinal bleeding / lesions [2]: gastrointestinal bleeding

SMILES: C=CC1=C(C)/C(=C/c2[nH]c(Cc3[nH]c(/C=C4\NC(=O)C(C)=C4C=C)c(C)c3CCC(=O)O)c(CCC(=O)O)c2C)NC1=O [bilirubin]
- biliary excretion with exogenously added bile acids ([1]; in vivo): increased the biliary excretion

SMILES: O=C1OC(c2ccc(O)c(S(=O)(=O)O)c2)(c2ccc(O)c(S(=O)(=O)O)c2)c2c(Br)c(Br)c(Br)c(Br)c21 [bromosulphthalein]
- biliary excretion with exogenously added bile acids ([1]; variety of animal species): increased the biliary excretion

SMILES: CN(C)CCCN1c2ccccc2Sc2ccc(Cl)cc21 [chlorpromiazine]
- cholestasis caused [3]: drug-induced cholestasis

SMILES: C[C@]12CC[C@@H]3c4ccc(O)cc4CC[C@H]3[C@@H]1CC[C@@H]2O[C@@H]1O[C@H](C(=O)O)[C@@H](O)[C@H](O)[C@H]1O [estradiol-17-β-D-glucaronide]
- cholestasis caused [3]: drug-induced cholestasis

SMILES: CC1(C)C(/C=C/C=C/C=C/C=C2\N(CCCCS(=O)(=O)O)c3ccc4ccccc4c3C2(C)C)=[N+](CCCCS(=O)(=O)[O-])c2ccc3ccccc3c21 [indocyamine green]
- biliary excretion with exogenously added bile acids ([1]; variety of animal species): increased the biliary excretion

SMILES: COc1ccc2c(c1)c(CC(=O)O)c(C)n2C(=O)c1ccc(Cl)cc1 [indomethacin]
- degradation of indomethacin in stored plasma [4]: No degradation of indomethacin was detected
- dissolution in presence of sodium deoxycholate and sodium cholate [5]: enhance the dissolution
- biliary clearance / enterohepatic circulation (in words) ([6]; in vivo): Extensive clearance of intact indomethacin into the bile
- plasma clearance ([6]; in vivo): low plasma clearance
- plasma half-life ([6]; in vivo): short plasma half-life
- route of excretion ([6]; in vivo): mainly excreted via the hepato-biliaryroute
- volume distribution ([6]; in vivo): low volume distribution
- extent of enterohepatic recycling ([6]; man and animals): 21-41%
- absorption rate in vivo with bile acids [7]: did not translate into an enhanced absorption rate in vivo
- bioavailability with exogenously added bile acids ([7]; in vivo): increased the bioavailability of indomethacin
- inter-subject variation with exogenously added bile acids ([7]; in vivo): decreasing inter-subject variation

SMILES: CCC(Cc1c(I)cc(I)c(N)c1I)C(=O)O (centres unmarked) [iopanoic acid]
- biliary excretion with exogenously added bile acids ([1]; in vivo): increased the biliary excretion

SMILES: CCCCC1C(=O)N(c2ccccc2)N(c2ccccc2)C1=O [phenylbutazone]
- dissolution in presence of sodium deoxycholate and sodium cholate [5]: enhance the dissolution

SMILES: CN1C(C(=O)Nc2ccccn2)=C(O)c2ccccc2S1(=O)=O [piroxicam]
- gastrointestinal bleeding / lesions [2]: gastrointestinal bleeding

SMILES: C[C@H](CCC(=O)O)[C@H]1CC[C@H]2[C@@H]3[C@@H](O)C[C@@H]4C[C@H](O)CC[C@]4(C)[C@H]3CC[C@]12C [ursodeoxycholate, Ursodeoxycholate]
- CMC [8]: 1 to 3 mM
- detergent effect in isolated perfused rat liver [9]: lack of detergent effect
- detergent effect in isolated human hepatocytes [10]: lack of detergent effect
- gastrointestinal side-effects [11]: decreased incidence of gastrointestinal side-effects
- hepatic enzyme levels in plasma [11]: lower hepatic intracellar enzyme levels
- biliary excretion of membrane enzymes [12]: reduces the biliary excretion of membrane enzymes
- measures of hepatic damage [13]: reverse measures of hepatic damage
- plasma levels of liver enzymes and bilirubin [14]: reverse the elevated plasma levels of liver enzymes and bilirubin
- prevention of toxicological effects of more detergent bile acids [15]: prevent the toxicological effects of more detergent bile acids
- prevention of toxicological effects of more detergent bile acids [16]: prevent the toxicological effects of more detergent bile acids
- reversal of drug-induced cholestasis ([3]; caused by estradiol-17-β-D-glaucaronide and chlorpromazine): reverse drug-induced cholestasis
